In data set [1] the test system is Caco-2-cell monolayer. Description: TEER, cationic penetration promotor/anionic active ingredient mixtures (Example 18). Type of data set: cell-based. Here is the method:
TEER-Testing was performed analogous to example 12.
The following mixtures in HBSS-buffers were tested
Desmopressin acetate=Desmo,
EUDRAGIT® E Carbonate=E (s. description: carbonated amino(meth)acrylate copolymer)
Bowman Birk Inhibitor=BBI
Heparin: Low molecular weight heparin (LMW-Heparine); Fraxiparin™ (Nadroparin calcium); 0.6 ml ready to use syringe for subcutaneous injection (5700 IU anti-Xa/mg); Ch.B.: 3394-1; Glaxo Smith Kline

Data set [2] has as its system Caco-2-cell monolayer. Put plainly: TEER, pure penetration promotor, Caco-2 cell monolayer (Example 17). Type of data set: cell-based. The following applies: positive control 0.1%. As to the method: The penetration promoter in the sense of the present invention may be defined by reducing the initial TEER-value of the buffer solution without penetration promotor (100%) to 50% or less, preferably 40% or less, preferably 30% or less, preferably 20% or less in the presence of the penetration promotor at a concentration of 1 mg/ml after 60 min measured in a Caco-2-cell monolayer culture as transport barrier.
TEER-Testing was performed analogous to example 12. EUDRAGIT® E acetate=EUDRAGIT® E dissolved in water by addition of acetic acid until clear solution was obtained; EUDRAGIT® E PO base=dispersion of EUDRAGIT® E PO (powder form of EUDRAGIT® E) in water (not dissolved); chitosan acetate=chitosan dissolved in water by addition of acetic acid until clear solution was obtained.

The next data set deals with Pancreatin. Put plainly: In-vitro pancreatic enzyme inhibition test, degradation of desmopressin acetate by pancreatin (Example 14). The format is biochemical. The following applies: for desmopressin acetate remaining in presence of pancreatin: control solutions (positive control 1 mg/ml BBI final). Here is the method: In-Vitro Pancreatic Enzyme Inhibition Test of the Preparations of Examples 1, 4 and 5
Inhibition experiments were performed using a new study design considering the dissolution of the pellets.
80 mg of each formulation were stirred in 10 ml of HBSS pH 5.8 at the lowest stirring speed available. The stirring was stopped after 30 min and the suspensions allowed to settle down before an aliquot (2 ml) was drawn and mixed with 2 mL of a solution containing 80 μg·ml^−1 of Desmopressin acetate in HBSS buffer pH 6.5. The pH of the solutions was measured but not adjusted.
As a negative control 2 ml of HBSS buffer were mixed with 2 ml of a solution containing 80 μg·ml^−1 of Desmopressin acetate in HBSS buffer pH 6.5. The pH of the solutions was measured but not adjusted.
As a positive control a solution containing 4 mg of BBI per ml in HBSS was used. 2 ml of the solution were mixed with 2 ml of a solution containing 80 μg·ml^−1 of Desmopressin acetate in HBSS buffer pH 6.5. The pH of the solutions was measured but not adjusted.
200 μL of the prepared solutions were mixed with 200 μl of a Pancreatin solution (20 mg·ml^−1) and incubated for 1, 2 and 3 h at 37° C. Each experiment was performed in triplicate (three individually prepared solutions).
(Final concentrations in the positive control: 1 mg/ml BBI, 20 μg/ml desmopressin actuate and 10 mg/ml pancreatin)
For the 100% value 80 mg pellets were stirred in 10 ml HBSS pH 5.8 for 30 min and homogenized using an ultraturrax. The suspension was stirred for further 15 minutes and allowed to settle down.
The supernatant was collected and further diluted with Desmopressin acetate in HBSS buffer pH 6.5 as described above. The pH of the solutions was measured but not adjusted.
For the starting values (t0) the mixture was directly added to 400 μl of acetonitrile and diluted with 1200 μL of HBSS buffer pH 6.5. The solution were analysed by HPLC using a RP-18-column as a stationary phase and a water/acetonitrile-mixture (80:20) as eluent phase at a wavelength of 220 nm.

For data set [3] the following is noted: orally ingested; cited from earlier work.
Where [4] appears, read: listed as buffer (baseline), mean of n = 3.

Regarding Nadroparin calcium [Example 18d], the “TEER in % of TEER in Medium during the test” value (from here on “TEER in % of TEER”) came to 110% in the data set on Caco-2-cell monolayer [1] (0 min); 102% with Caco-2-cell monolayer [1] (15 min); 106% with Caco-2-cell monolayer [1] (30 min); 105% with Caco-2-cell monolayer [1] (60 min); 112% in the data set on Caco-2-cell monolayer [1] (90 min); 111% in the data set with Caco-2-cell monolayer [1] (120 min). For the same molecule, the “TEER in % of TEER” value with Caco-2-cell monolayer [1] (240 min) came to 104%; with Caco-2-cell monolayer [1] (setting [4]) it was 118%.
`NC(=O)CC[C@@H]1NC(=O)[C@H](Cc2ccccc2)NC(=O)[C@H](Cc2ccc(O)cc2)NC(=O)CCSSC[C@@H](C(=O)N2CCC[C@H]2C(=O)N[C@H](CCCN=C(N)N)C(=O)NCC(N)=O)NC(=O)[C@H](CC(N)=O)NC1=O` [Example 18c, Desmopressin acetate]: the “TEER in % of TEER” value with Caco-2-cell monolayer [1] (0 min) amounted to 119%; in the data set with Caco-2-cell monolayer [1] (15 min), 111%; in the data set with Caco-2-cell monolayer [1] (30 min) it was 115%; in the data set with Caco-2-cell monolayer [1] (60 min), 111%; in the data set with Caco-2-cell monolayer [1] (90 min) it was 118%; in the data set with Caco-2-cell monolayer [1] (120 min), 119%. Also, the “TEER in % of TEER” value in the data set on Caco-2-cell monolayer [1] (240 min) came out at 109%; in the data set with Caco-2-cell monolayer [1] (setting [4]), 123%.
`CCCCCCCCCCCCOS(=O)(=O)[O-].[Na+]` [Example 18h, Sodiumdodecylsufate]: the “TEER in % of TEER” value is listed as 22% in the data set with Caco-2-cell monolayer [1] (0 min); 16% with Caco-2-cell monolayer [1] (15 min); 16% in the data set on Caco-2-cell monolayer [1] (30 min); 12% in the data set on Caco-2-cell monolayer [1] (60 min); 16% in the data set with Caco-2-cell monolayer [1] (90 min); 12% with Caco-2-cell monolayer [1] (120 min). Further, the “TEER in % of TEER” value in the data set with Caco-2-cell monolayer [1] (240 min) was 13%; with Caco-2-cell monolayer [1] (setting [4]), 123%. Moreover, the Mean-TEER in the data set with Caco-2-cell monolayer [2] (5 min) was found to be 12%; in the data set on Caco-2-cell monolayer [2] (60 min), 4%; with Caco-2-cell monolayer [2] (120 min), 10%; with Caco-2-cell monolayer [2] (180 min) it was 12%; with Caco-2-cell monolayer [2] (240 min) it was 15%; with Caco-2-cell monolayer [2] (HBSS (0 min)), 100%.
In the case of `NC(=O)CC[C@@H]1NC(=O)[C@H](Cc2ccccc2)NC(=O)[C@H](Cc2ccc(O)cc2)NC(=O)CCSSC[C@@H](C(=O)N2CCC[C@H]2C(=O)N[C@H](CCCN=C(N)N)C(=O)NCC(N)=O)NC(=O)[C@H](CC(N)=O)NC1=O` [Desmopressin acetate], the “desmopressin acetate remaining in presence of pancreatin” value with Pancreatin (0 min) was found to be 100.00%; in the data set on Pancreatin (60 min), 61.79%; in the data set on Pancreatin (120 min), 50.51%; with Pancreatin (180 min), 33.54%. For the same molecule, in the data set with Pancreatin (in the absence of the BBI, time not stated), the recovery of desmopressin result was “more than 60%”.

B1: BBI: Bowman-Birk inhibitor from soy bean source (Sigma Aldrich); trypsin and chymotrypsin inhibitor (protein, UniProt P01055 40-110, looked up)
Bowman-Birk type proteinase …: DDESSKPCCDQCACTKSNPPQCRCSDMRLNSCHSACKSCICALSYPAQCFCVDITDFCYEPCKPSEDDKEN
Take B1: the “desmopressin acetate remaining in presence of pancreatin” value in the data set with Pancreatin (0 min) was found to be 100.00%; with Pancreatin (60 min), 98.82%; in the data set on Pancreatin (120 min), 94.48%; with Pancreatin (180 min), 85.25%. In addition, the “inhibition of degradation of desmopressin acetate by pancreatin (in words)” value in the data set on Pancreatin (n=3) is given as “remarkably reduce the degradation”. The “ingested bowman birk inhibitor absorbed in to the bloodstream” value in data set [3] was “Approximately 50%”.

These data come from patent US8765152B2, “Pharmaceutical or neutraceutical formulation” (Evonik Roehm GmbH, priority 2010, dated 2014).
